Assay results as given in PubChem BioAssay (NCI).
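Grown in 96-well plates, cells were treated for 48 hours with each compound at five concentrations. Insufficient inhibition: endpoint recorded as highest concentration tested. The concentration for 50% growth inhibition is given as GI50. Definition used: TGI = concentration required for complete inhibition of growth.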

Columns and labels:
Assay in all cases: NCI-60 cell line screen, 48 h
[1] = test system: SF-268 CNS
[2] = test system: SK-OV-3 ovarian
[3] = test system: MALME-3M melanoma
[4] = test system: ACHN renal
[5] = test system: CAKI-1 renal
[6] = test system: SF-295 CNS
[7] = test system: HT29 colon
[8] = test system: HOP-62 NSCLC
[9] = test system: OVCAR-4 ovarian
[10] = test system: HOP-92 NSCLC

With S=CN1CCCCC1 the TGI [1] was over 100 µM, the TGI [2] was over 100 µM and the TGI [3] was over 100 µM. It also gave a TGI [4] of over 100 µM, a TGI [5] of over 100 µM and a TGI [6] of over 100 µM. The TGI [7] was over 100 µM and the TGI [8] was over 100 µM.
C/C(CN1C(=O)c2ccccc2C1=O)=N\NS(=O)(=O)c1cccc([N+](=O)[O-])c1 showed a TGI [1] of over 100 µM, a TGI [2] of over 100 µM and a TGI [3] of over 100 µM. The TGI [4] was over 100 µM, the TGI [5] was over 100 µM and the TGI [6] was over 100 µM. It also gave a TGI [9] of over 100 µM, a TGI [7] of over 100 µM and a TGI [8] of over 100 µM.
Work on CS(=O)(=O)c1ccc(Oc2cc(F)cc(C#N)c2)c2c1[C@H](O)[C@H](F)[C@@H]2F yielded a GI50 [1] of over 100 µM, a TGI [1] of over 100 µM and a GI50 [2] of over 100 µM. For the same compound, the TGI [2] was over 100 µM, the GI50 [3] was over 100 µM and the TGI [3] was over 100 µM. The GI50 [4] was over 100 µM, the TGI [4] was over 100 µM and the GI50 [5] was over 100 µM. The TGI [5] was over 100 µM, the GI50 [6] was over 100 µM and the TGI [6] was over 100 µM. The GI50 [9] was over 100 µM, the TGI [9] was over 100 µM and the GI50 [7] was over 100 µM. For the same compound, the TGI [7] was over 100 µM, the GI50 [8] was over 100 µM and the TGI [8] was over 100 µM.
Work on Cc1cc2c(cc1C)NC(=O)C(NC(=O)/C=C/c1ccccc1)C=N2 (stereo not drawn) yielded a TGI [1] of over 100 µM, a TGI [2] of over 100 µM and a TGI [3] of over 100 µM. The TGI [4] was over 100 µM, the TGI [5] was over 100 µM and the TGI [6] was over 100 µM. For the same compound, the TGI [9] was over 100 µM and the TGI [8] was over 100 µM.
With CN(C)/[N+]([O-])=N/Oc1cc(Nc2cccc(C(=O)O)c2)c([N+](=O)[O-])cc1[N+](=O)[O-] the GI50 [1] was 30 µM, the TGI [1] was 78.5 µM and the GI50 [4] was over 100 µM. The TGI [4] was over 100 µM, the GI50 [5] was over 100 µM and the TGI [5] was over 100 µM. For the same compound, the GI50 [6] was over 100 µM, the TGI [6] was over 100 µM and the GI50 [7] was over 100 µM. It also gave a TGI [7] of over 100 µM, a GI50 [8] of 32.2 µM and a TGI [8] of over 100 µM.
Compound CCCCCCCCCCCCCS(=O)(=O)O has a TGI [1] of over 100 µM, a TGI [3] of over 100 µM and a TGI [4] of over 100 µM. The TGI [10] was over 100 µM, the TGI [6] was over 100 µM and the TGI [9] was over 100 µM. For the same compound, the TGI [7] was over 100 µM and the TGI [8] was over 100 µM.
With CCOC(=N)CC(=O)Nc1ccc(Cl)cc1 the TGI [1] was over 100 µM, the TGI [2] was over 100 µM and the TGI [3] was over 100 µM. The TGI [4] was over 100 µM, the TGI [5] was over 100 µM and the TGI [6] was over 100 µM. For the same compound, the TGI [9] was over 100 µM, the TGI [7] was over 100 µM and the TGI [8] was over 100 µM.
For C/C(=N\NC(=S)N1CCCCCC1)c1nccnc1C, the TGI [1] was over 100 µM, the TGI [3] was over 100 µM and the TGI [4] was 3.24 µM. The TGI [5] was over 100 µM, the TGI [6] was 16.6 µM and the TGI [9] was over 100 µM. It also gave a TGI [7] of over 100 µM and a TGI [8] of over 100 µM.
With C=C1C(=O)O[C@@H]2C[C@@H]1CC[C@]1(C)O[C@H]1CC[C@@]1(C)O[C@@H]1CC[C@@]2(C)O the GI50 [1] was over 100 µM, the TGI [1] was over 100 µM and the GI50 [2] was over 100 µM. It also gave a TGI [2] of over 100 µM, a GI50 [3] of 22.3 µM and a TGI [3] of 71.2 µM. The GI50 [4] was 25.1 µM, the TGI [4] was 75.2 µM and the GI50 [5] was 27.3 µM. It also gave a TGI [5] of 79.9 µM, a GI50 [6] of 26.7 µM and a TGI [6] of 75.7 µM. The GI50 [9] was 13.7 µM, the TGI [9] was 33.1 µM and the GI50 [7] was 24.7 µM. For the same compound, the TGI [7] was 87.6 µM, the GI50 [8] was 75.8 µM and the TGI [8] was over 100 µM.
CC(C)C(C(=O)O)N(CC1(O)OCC(O)C(O)C1O)N=O (stereo not drawn) gave a TGI [2] of over 100 µM, a TGI [3] of over 100 µM and a TGI [4] of over 100 µM. The TGI [10] was over 100 µM, the TGI [7] was over 100 µM and the TGI [8] was over 100 µM.
For O=C1c2ccccc2-c2c1c1ccccc1c(=O)n2CCCNCCCn1c2c(c3ccccc3c1=O)C(=O)c1ccccc1-2, the GI50 [1] was 7.13 µM, the TGI [1] was over 30.6 µM and the GI50 [2] was 11.7 µM. For the same compound, the TGI [2] was 40.5 µM, the GI50 [3] was 12.6 µM and the TGI [3] was 26.2 µM. For the same compound, the GI50 [4] was 0.814 µM, the TGI [4] was 8.81 µM and the GI50 [5] was 8.12 µM. For the same compound, the TGI [5] was 17.5 µM, the GI50 [6] was 3.52 µM and the TGI [6] was over 21.8 µM. For the same compound, the GI50 [9] was 3.2 µM, the TGI [9] was 9.57 µM and the GI50 [7] was 0.997 µM. For the same compound, the TGI [7] was over 50 µM, the GI50 [8] was 2.68 µM and the TGI [8] was 9.19 µM.
Work on Cn1ncc(=S)[nH]c1=S yielded a TGI [1] of over 100 µM, a TGI [2] of over 100 µM and a TGI [3] of over 100 µM. The TGI [4] was over 100 µM, the TGI [10] was over 100 µM and the TGI [6] was over 100 µM. It also gave a TGI [9] of over 100 µM and a TGI [8] of over 100 µM.
Oc1cccc2c1NC1=C(CCC/C1=C\c1ccccc1)C2 gave a TGI [1] of over 100 µM, a TGI [2] of over 100 µM and a TGI [3] of over 100 µM. The TGI [4] was over 100 µM, the TGI [6] was over 100 µM and the TGI [7] was over 100 µM. For the same compound, the TGI [8] was over 100 µM.
With CN(C)c1ccc(-c2cc(=O)c3ccccc3[nH]2)cc1 the TGI [1] was over 100 µM, the TGI [3] was over 100 µM and the TGI [4] was over 100 µM. The TGI [6] was over 100 µM, the TGI [7] was over 100 µM and the TGI [8] was over 100 µM.
Compound CCCc1c2c([nH]c(=O)c1C)C(=O)c1[nH]c(=O)c(C)c(CCC)c1C2=O has a TGI [1] of 87.4 µM, a TGI [3] of 22.2 µM and a TGI [4] of 47.6 µM. It also gave a TGI [10] of 93.8 µM, a TGI [6] of over 100 µM and a TGI [9] of 54.6 µM. For the same compound, the TGI [7] was 18.7 µM and the TGI [8] was over 100 µM.
Work on COc1nc2c(OC)cccc2c(OC)c1C=O yielded a TGI [2] of over 100 µM, a TGI [3] of over 100 µM and a TGI [4] of over 100 µM. It also gave a TGI [6] of over 100 µM, a TGI [7] of over 100 µM and a TGI [8] of over 100 µM.
Work on COc1cc(Nc2cnc3cc(C(F)(F)F)ccc3n2)cc(OC)c1OC yielded a TGI [1] of over 100 µM, a TGI [2] of over 100 µM and a TGI [3] of over 100 µM. It also gave a TGI [4] of over 100 µM, a TGI [10] of over 100 µM and a TGI [6] of over 100 µM. It also gave a TGI [7] of over 100 µM and a TGI [8] of over 100 µM.
For CC(O)C1OC(O)C2OC(C)(C)OC12 (stereo not drawn), the TGI [1] was over 100 µM, the TGI [2] was over 100 µM and the TGI [4] was over 100 µM. For the same compound, the TGI [5] was over 100 µM, the TGI [6] was over 100 µM and the TGI [9] was over 100 µM. For the same compound, the TGI [7] was over 100 µM and the TGI [8] was over 100 µM.
